In patent US11192849B2, “Compounds, compositions, and methods for modulating ferroptosis and treating excitotoxic disorders” (THE TRUSTEES OF COLUMBIA UNIVERSITY IN THE CITY OF NEW YORK, priority 2013, dated 2021):

Legend:
BJeLR and HT-1080 cells = assay: Measurement of ATP levels; type: cell-based, human; settings: normalized to viability
Experimental: ATP levels were evaluated using the ApoSENSOR ATP Assay Kit (Biovision Inc., Milpitas, Calif.) according to the manufacturer's instructions. 2000 HT-1080 or BJeLR cells were seeded in 96-well white bottom plates (Falcon). Cells were treated 12 hours later with compound as above for the TEM. Prior to luminescence measurement, medium was removed and cells were lysed and incubated with ATP Monitoring Enzyme. Luminescence was measured using a Victor3 platereader equipped with an infrared emission filter every 30 seconds for 10 minutes. Typically the first reading was used for data analysis. Parallel cell culture treatments were performed in 96-well clear bottom plates and cell viability was determined using Alamar Blue. These values were used to normalize ATP levels to cell viability.

[1] = system: mouse kidney proximal tubules; assay: Hydroxyquinoline + iron induced cell death in isolated mouse kidney proximal tubules (LDH release); type: cell-based; settings: 10 μM hydroxyquinoline and ferrous ammonium sulfate, 60 min
Experimental: Tubule preparation: 8-12 week old C57/BL6 female mice were euthanized with isoflurane. […] The cortices were then dissected and minced on an ice cold tile, then resuspended in additional Solution A for 8-10 min. of digestion at 37° C. followed by enrichment of proximal tubules using centrifugation on self-forming Percoll gradients as previously described for rabbit tubules.
Experimental procedures for isolated tubules: Tubules were suspended at 1.5-2.0 mg tubule protein/ml in a 95% air/5% CO2-gassed medium containing (in mM) 110 NaCl, 2.6 KCl, 25 NaHCO3, 2.4 KH2PO4, 1.25 CaCl2, 1.2 MgCl2, 1.2 MgSO4, 5 glucose, 4 sodium lactate, 0.3 alanine, 5 sodium butyrate, 2 glycine, and 1.0 mg/ml bovine gelatin (75 bloom) (Solution B). After precincubation for 15 min. at 37° C., then were then resuspended in fresh Solution B containing 2 mM heptanoic acid instead of sodium butyrate along with experimental compounds.
In addition, the efficacy of Fer-1, SRS11-92, and selected analogs was tested in a model of iron-induced cell death in freshly isolated mouse kidney proximal tubules that simulates major elements of rhabdomyolysis-induced acute kidney injury (FIG. 15C). Cell death in this model is known to involve oxidative lipid damage (Sogabe, et al., 1996, Park, et al., 2011); it was therefore believed that Fer-1 might be protective. 10 μM each of hydroxyquinoline and ferrous ammonium sulfate (HQ+Fe) were used to induce cell death, which was quantified by monitoring LDH release after 60 min. […] By implication, cell death in these models may involve, at least in part, the induction of lipid peroxidation and perhaps ferroptosis.

[2] = system: HT-1080, BJeLR and Calu-1 cells; assay: Modulatory profiling of cell death inhibitors against erastin; type: cell-based, human; settings: erastin 10 μM, 24 hours; 10-point, 4-fold dilution series
Experimental: The day before the experiment, cells were seeded in black, 384-well clear bottom plates (Corning) at a density of 1,000 cells/well using a Beckman Biomek FX Workstation. All compounds (except 3-methyladenine and chloroquine, which were diluted in water) were diluted in DMSO at 250 times the final highest test concentration, and aliquoted across a 384-well plate (Greiner, Monroe, N.C.). A ten-point, 4-fold dilution series of each inhibitor in DMSO was made using a multichannel pipette. Replicates of this mother plate were stored at −20° C. […] Medium was removed from cells and replaced with 36 μL medium containing DMSO (0.1%) or erastin (10 μM final concentration). Using the Biomek FX, 4 μL were then transferred from each inhibitor daughter plate into the DMSO-containing or erastin-containing assay plates. For 3-methyladenine and chloroquine, inhibitors were prepared fresh in media at 10-fold the final concentration in the presence of DMSO or 10 μM erastin. These solutions were manually pipetted onto cells in 384-well format. Assay plates were incubated at 37° C. for 24 hours. Viability was assessed using Alamar Blue.
The modulatory effect (Me) for drug-drug interactions was computed as follows. First, plate-based background correction was performed using Alamar Blue values from empty (cell-free) wells included on each plate. Next, within each experiment, 100% viability is determined as the average Alamar Blue score for cells treated with modulator=DMSO and lethal=DMSO, and all Alamar Blue values were scaled from 0 to 1 with the DMSO×DMSO condition=1. The individual effects of each modulator and lethal (e.g. in the presence of DMSO) at all tested doses were then ascertained. […] Next, BExp was compared to the actual observed viability. […] By default, Me in DMSO-treated cells is equal to 0. […] Me values for each inhibitor-lethal drug combination were hierarchically clustered and plotted as a heatmap using the heatmaps.2 function of the gplots library in R.

[3] = system: freshly isolated renal tubules; assay: LDH release from hypoxic freshly isolated renal tubules; type: cell-based, mouse; settings: Nec-1 50 μM, with or without glycine
Experimental: Six to 12 mice were used for each isolated tubule preparation, depending on the amount of material needed for particular experiments. For preparation of isolated tubules, mice were anesthetized with ketamine (100 mg/kg i.p.) and xylazine (10 mg/kg i.p.), and the kidneys were immediately removed. Type I collagenase was from Worthington Biochemical. Percoll was purchased from Amersham Biosciences. All other reagents and chemicals, including delipidated BSA, were of the highest grade available from Sigma-Aldrich. […] The cortices were then dissected and minced on an ice-cold tile and then resuspended in additional solution A for 8-10 min of digestion at 37° C., followed by enrichment of proximal tubules using centrifugation on self-forming Percoll gradients. For Nec-1 studies in renal tubules, renal cortices were dissected in ice-cold dissection solution (DS) [HBSS with 10 mmol/L glucose, 5 mmol/L glycine, 1 mmol/L alanine, 15 mmol/L Hepes (pH 7.4); osmolality, 325 mOsmol/L] and sliced into 1-mm pieces. The fragments were transferred to collagenase solution (DS with 0.1% (wt/vol) type 2 collagenase and 96 μg/mL soybean trypsin inhibitor) and digested for 30 min at 37° C. and 61×g. After digestion, the supernatant was sieved through two nylon sieves: first 250-μm pore size and then 100-μm pore size. […]

SLC7A11 = SLC7A11 mRNA levels (RT-qPCR) in HT-1080 cells; type: cell-based, human; settings: 6 hours
Experimental: RNA was extracted using the Qiashredder and Qiagen RNeasy Mini kits (Qiagen) according to the manufacturer's protocol. 2 μg total RNA for each sample was used as input for each reverse transcription reaction, performed using the TaqMan RT kit (Applied Biosystems, Life Technologies Corp., Carlsbad, Calif.). Primer pairs were designed for target transcripts using Primer Express 2.0 (Applied Biosystems). Quantitative PCR reactions were performed using the Power SYBR Green PCR Master Mix (Applied Biosystems). Triplicate samples per condition were analyzed on an Applied Biosystems 7300 qPCR instrument using absolute quantification settings. Differences in mRNA levels compared to HPRT1 or ACTB internal reference control were computed between control and experimental conditions using the ΔΔCt method.

HT-1080 cells = assay: Inhibition of erastin (10 μM)-induced death in HT-1080 cells (Alamar Blue); type: cell-based, human; settings: erastin-treated HT-1080 cells
In short: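 HT-1080 cells (1,000/well) were treated next day with 10 μM erastin plus a compound dilution series for 24 h. Alamar Blue (10% final) was then added for 6 h and fluorescence read at ex/em 530/590.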

Calu-1 cells = assay: Erastin-induced ferroptosis in Calu-1 cells, NOX pathway inhibitors; type: cell-based, human
Experimental: (§1) Cell viability was typically assessed in 384-well format by Alamar Blue (Invitrogen) fluorescence (ex/em 530/590) measured on a Victor3 platereader (Perkin Elmer, Waltham, Mass.). In some experiments, Trypan Blue dye exclusion counting was performed using an automated cell counter (ViCell, Beckman-Coulter Inc., Brea, Calif.). Cell viability in test conditions is reported as a percentage relative to the negative control treatment.

BJeLR cells = assay: Erastin-induced death and ROS in BJeLR cells; type: cell-based, human; settings: erastin 10 μM, 6-AN 200 μM
Experimental: The day before the experiment, 200,000 cells/well were seeded in 6-well dishes (Corning Inc., Corning, N.Y.). The day of the experiment, cells were treated with test compounds for the indicated times, then harvested by trypsinization, resuspended in 500 μL Hanks Balanced Salt Solution (HBSS, Gibco, Invitrogen Corp., Carlsbad, Calif.) containing either H2DCFDA (25 μM), C11-BODIPY(581/591) (2 μM) or MitoSOX (5 μM) (all from Molecular Probes, Invitrogen) and incubated for 10 minutes at 37° C. in a tissue culture incubator. Cells were then resuspended in 500 μL of fresh HBSS, strained through a […] cell strainer (BD Falcon, BD Biosciences, San Jose, Calif.), and analyzed using a flow cytometer (FACSCalibur or Accuri C6, BD Biosciences), which was equipped with 488-nm laser for excitation. Data was collected from the FL1 (H2DCFDA, C11-BODIPY) or FL2 channel (MitoSOX). A minimum of 10,000 cells were analyzed per condition.
as §1, with “treatment. […]” for “treatment.”

Compound: OO [Compound H2O2, hydrogen peroxide]
- intracellular ATP (BJeLR and HT-1080 cells): substantial depletion of intracellular ATP

Compound: CN1C(=O)C(Cc2c[nH]c3ccccc23)NC1=S (centres unmarked) [necrostatin-1]
- HQ+Fe induced lethality (LDH release) [1]: did not show any protection
- modulation of erastin-induced death [2]: not consistently modulated
- LDH release from hypoxic renal tubules [3]: no protection was detected

Compound: OCCS [β-ME, β-mercaptoethanol, reference compound]
- effect on erastin/SAS-induced SLC7A11 upregulation (SLC7A11): suppressed
- prevention of erastin-induced death (HT-1080 cells): strongly inhibited cell death

Compound: NC(=O)c1ccc(N)nc1 [Compound 6-AN, 6-aminonicotinamde]
- suppression of erastin-induced ferroptosis (Calu-1 cells): strongly suppressed
- erastin-induced cell death and ROS production (BJeLR cells): prevented cell death as well as ROS production
